Experimental data as given in BindingDB's records for doi:10.7270/Q25B013C (The Scripps Research Institute Molecular Screening Center, 2014).
pIC50: −log10 of the molar value.

Target: T1, Disintegrin and metalloproteinase domain-containing protein 10 (Homo sapiens, UniProt O14672)
T1 sequence (O14672 whole entry): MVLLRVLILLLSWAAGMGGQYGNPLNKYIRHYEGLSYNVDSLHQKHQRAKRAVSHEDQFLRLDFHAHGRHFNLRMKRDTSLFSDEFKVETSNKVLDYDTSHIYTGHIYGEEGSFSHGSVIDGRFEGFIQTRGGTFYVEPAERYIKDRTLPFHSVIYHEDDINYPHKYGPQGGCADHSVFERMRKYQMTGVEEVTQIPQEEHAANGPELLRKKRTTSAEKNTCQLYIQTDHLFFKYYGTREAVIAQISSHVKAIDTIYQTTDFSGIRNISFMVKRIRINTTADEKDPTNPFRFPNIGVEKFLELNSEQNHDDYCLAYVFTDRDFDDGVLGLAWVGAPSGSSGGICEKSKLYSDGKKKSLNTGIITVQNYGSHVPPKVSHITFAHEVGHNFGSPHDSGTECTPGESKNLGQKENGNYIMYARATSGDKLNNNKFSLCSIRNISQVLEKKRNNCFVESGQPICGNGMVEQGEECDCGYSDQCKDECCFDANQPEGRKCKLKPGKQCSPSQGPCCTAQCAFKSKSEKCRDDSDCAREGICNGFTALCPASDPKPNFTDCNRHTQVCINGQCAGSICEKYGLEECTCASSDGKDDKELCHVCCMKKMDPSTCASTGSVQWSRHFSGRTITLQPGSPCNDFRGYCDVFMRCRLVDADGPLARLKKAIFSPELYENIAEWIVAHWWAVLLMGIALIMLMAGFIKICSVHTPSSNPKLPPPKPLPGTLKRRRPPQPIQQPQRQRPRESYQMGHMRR
Assay: ADAM10 protease inhibitors, dose response, selectivity assay for ADAM17 exosite inhibitor project, biochemical, FRET peptide substrate, recombinant human ADAM10 (AID 743259)

pIC50	SMILES
4.16	O=C1OCCN1C(=O)C1=[N+](c2ccc(Br)cc2)N[C-](c2ccccc2)[C@H]1c1ccc([N+](=O)[O-])cc1 [SMR000327268]
4.49	CC(=NNC(=N)Sc1cc(O)n(-c2ccc(Br)cc2)c1O)c1cccs1 [[1-(4-bromophenyl)-2,5-bis(oxidanylidene)pyrrolidin-3-yl] N''-(1-thiophen-2-ylethylideneamino)carbamimidothioate]
5.00	CC(=NNC(=N)Sc1cc(O)n(-c2ccccc2)c1O)c1cccs1 [[2,5-bis(oxidanylidene)-1-phenyl-pyrrolidin-3-yl] N'-[(E)-1-thiophen-2-ylethylideneamino]carbamimidothioate]
4.16	COC(=O)c1cccc(Cn2c(Cl)c(CN=Nc3ccccc3C)sc2=O)c1 [methyl 3-[[4-chloro-5-[[(2-methylphenyl)hydrazinylidene]methyl]-2-oxo-1,3-thiazol-3-yl]methyl]benzoate]

More lines, now with the values behind:

SMILES	pIC50
CCOc1ccc(NC(=O)Cc2sc(=O)n(-c3ccccc3)c2O)cc1	4.42
Cn1c(-c2sccc2OCc2ccc(Cl)cc2Cl)n[nH]c1=S	4.96
O=C(Cc1sc(=O)n(-c2ccccc2)c1O)Nc1ccccc1 [2-(2,4-diketo-3-phenyl-thiazolidin-5-yl)-N-phenyl-acetamide]	4.32
COc1cccc(C2c3oc(CO)cc(=O)c3OC(=N)C2C#N)c1 (configuration not stated) [2-Amino-6-hydroxymethyl-4-(3-methoxy-phenyl)-8-oxo-4,8-dihydro-pyrano[3,2-b]pyran-3-carbonitrile]	4.16
COc1ccc(NC(=O)c2oc3ccccc3c2NC(=O)C(C)(C)C)cc1 [3-(2,2-dimethylpropanoylamino)-N-(4-methoxyphenyl)-1-benzofuran-2-carboxamide]	4.16
CCOc1cc(C(c2c(C)[nH][nH]c2=O)c2c(C)[nH][nH]c2=O)ccc1O [4-[(3-ethoxy-4-hydroxyphenyl)-(3-methyl-5-oxo-1,2-dihydropyrazol-4-yl)methyl]-5-methyl-1,2-dihydropyrazol-3-one]	5.59
Cc1cccc(NNC2=c3cc(Br)ccc3=NC2=O)c1 [5-bromo-3-[2-(3-methylphenyl)hydrazinyl]indol-2-one]	4.16
CC1CCCN(CCCNC(=O)c2coc3nc4ccccc4nc23)C1 (configuration not stated) [MLS000046706]	4.54
